# Measurements from PubChem BioAssay AID248 (DTP/NCI, 2004).
# Inconclusive results and toxic doses are left out.
# Test system: L1210 leukemia ip in BDF1 mice, survival T/C
# Assay: NCI In Vivo Anticancer Drug Screen. Data for tumor model L1210 Leukemia (intraperitoneal) in B6D2F1 (BDF1) mice
# Details: endpoint: mean survival time, higher = longer survival
# Outline: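 Transplantable tumor model; survival measured in treated vs vehicle control mice. Value = treated/control.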
# [1] = dose: 100.0 mg/kg/injection, schedule: Q01DX001 (ip), vehicle: carboxymethylcellulose (CMC)
# [2] = dose: 100.0 mg/kg/injection, schedule: Q01DX009 (ip), vehicle: saline
# [3] = dose: 100.0 mg/kg/injection, schedule: Q04DX003 (ip), vehicle: saline
# [4] = dose: 200.0 mg/kg/injection, schedule: Q01DX001 (ip), vehicle: carboxymethylcellulose (CMC)
# [5] = dose: 200.0 mg/kg/injection, schedule: Q01DX009 (ip), vehicle: saline
# [6] = dose: 200.0 mg/kg/injection, schedule: Q04DX003 (ip), vehicle: saline
# [7] = dose: 400.0 mg/kg/injection, schedule: Q01DX001 (ip), vehicle: carboxymethylcellulose (CMC)
# [8] = dose: 100.0 mg/kg/injection, schedule: Q01DX009 (ip), vehicle: Klucel (hydroxypropylcellulose) (HPC)
# [9] = dose: 100.0 mg/kg/injection, schedule: Q04DX003 (ip), vehicle: Klucel (hydroxypropylcellulose) (HPC)
# [10] = dose: 200.0 mg/kg/injection, schedule: Q01DX009 (ip), vehicle: Klucel (hydroxypropylcellulose) (HPC)
# [11] = dose: 200.0 mg/kg/injection, schedule: Q04DX003 (ip), vehicle: Klucel (hydroxypropylcellulose) (HPC)
# [12] = dose: 400.0 mg/kg/injection, schedule: Q01DX009 (ip), vehicle: Klucel (hydroxypropylcellulose) (HPC)
# [13] = dose: 400.0 mg/kg/injection, schedule: Q04DX003 (ip), vehicle: Klucel (hydroxypropylcellulose) (HPC)
# [14] = dose: 400.0 mg/kg/injection, schedule: Q01DX009 (ip), vehicle: saline
# [15] = dose: 400.0 mg/kg/injection, schedule: Q04DX003 (ip), vehicle: saline
# [16] = dose: 50.0 mg/kg/injection, schedule: Q01DX001 (ip), vehicle: saline
# [17] = dose: 100.0 mg/kg/injection, schedule: Q01DX001 (ip), vehicle: saline
# [18] = dose: 200.0 mg/kg/injection, schedule: Q01DX001 (ip), vehicle: saline
# [19] = dose: 400.0 mg/kg/injection, schedule: Q01DX001 (ip), vehicle: saline
# [20] = dose: 100.0 mg/kg/injection, schedule: Q04DX003 (ip), vehicle: saline with Tween-80
# [21] = dose: 200.0 mg/kg/injection, schedule: Q04DX003 (ip), vehicle: saline with Tween-80
# [22] = dose: 400.0 mg/kg/injection, schedule: Q04DX003 (ip), vehicle: saline with Tween-80
compound,measurement,setting,value
c1nc(N2CC2)c2cnn(C3CCCCO3)c2n1 (stereo not given),T/C,"dose: 50.0 mg/kg/injection, schedule: Q01DX001 (ip), vehicle: carboxymethylcellulose (CMC)",97 % of control
same,T/C,"dose: 50.0 mg/kg/injection, schedule: Q01DX009 (ip), vehicle: saline",102 % of control
same,T/C,[1],103 % of control
same,T/C,[2],113 % of control
same,T/C,[3],100 % of control
same,T/C,[4],106 % of control
same,T/C,[5],112 % of control
same,T/C,[6],97 % of control
same,T/C,[7],103 % of control
COC(=O)C12OCC34C(CC5C(C)=C(O)C(=O)CC5(C)C3C(O)C1O)OC(=O)C(OC(=O)/C=C(\C)C(C)(C)O)C24 (stereo not given),T/C,"dose: 0.06 mg/kg/injection, schedule: Q01DX009 (ip), vehicle: saline with Tween-80",116 % of control
same,T/C,"dose: 0.5 mg/kg/injection, schedule: Q01DX009 (ip), vehicle: saline with Tween-80",112 % of control
same,T/C,"dose: 1.0 mg/kg/injection, schedule: Q01DX009 (ip), vehicle: saline with Tween-80",105 % of control
same,T/C,"dose: 2.0 mg/kg/injection, schedule: Q01DX009 (ip), vehicle: saline with Tween-80",107 % of control
O=[N+]([O-])c1ccc(C(O)CC(O)(C(F)(F)F)C(F)(F)F)cc1 (stereo not given),T/C,[8],93 % of control
same,T/C,[9],94 % of control
same,T/C,[10],94 % of control
same,T/C,[11],91 % of control
same,T/C,[12],97 % of control
same,T/C,[13],95 % of control
N#CC(O)C1(O)CCCCC1 (stereo not given),T/C,"dose: 6.25 mg/kg/injection, schedule: Q04DX003 (ip), vehicle: saline sonified",101 % of control
same,T/C,"dose: 12.5 mg/kg/injection, schedule: Q04DX003 (ip), vehicle: saline sonified",101 % of control
same,T/C,"dose: 25.0 mg/kg/injection, schedule: Q04DX003 (ip), vehicle: saline sonified",94 % of control
CCC(=O)c1cc(OC)cc(OC)c1,T/C,[2],105 % of control
same,T/C,[5],105 % of control
same,T/C,[14],112 % of control
CCCCCCCCCCCCCCCOc1ccc2ccccc2c1,T/C,"dose: 100.0 mg/kg/injection, schedule: Q01DX001 (ip), vehicle: Klucel (hydroxypropylcellulose) (HPC)",326 % of control
same,T/C,"dose: 200.0 mg/kg/injection, schedule: Q01DX001 (ip), vehicle: Klucel (hydroxypropylcellulose) (HPC)",326 % of control
same,T/C,"dose: 400.0 mg/kg/injection, schedule: Q01DX001 (ip), vehicle: Klucel (hydroxypropylcellulose) (HPC)",326 % of control
O=S(=O)(O)c1ccc(Br)cc1,T/C,[2],116 % of control
same,T/C,[3],98 % of control
same,T/C,[5],108 % of control
same,T/C,[6],103 % of control
same,T/C,[14],108 % of control
same,T/C,[15],104 % of control
O=C1c2cccc3cc([N+](=O)[O-])cc(c23)C(=O)N1C(CO)(CO)CO,T/C,"dose: 100.0 mg/kg/injection, schedule: Q04DX002 (ip), vehicle: saline",101 % of control
same,T/C,"dose: 200.0 mg/kg/injection, schedule: Q04DX002 (ip), vehicle: saline",101 % of control
same,T/C,"dose: 400.0 mg/kg/injection, schedule: Q04DX002 (ip), vehicle: saline",99 % of control
COc1ccccc1NC(=O)Nc1ccc(C)c(C)c1,T/C,"dose: 100.0 mg/kg/injection, schedule: Q01DX009 (ip), vehicle: gum acacia",92 % of control
same,T/C,"dose: 100.0 mg/kg/injection, schedule: Q04DX003 (ip), vehicle: gum acacia",96 % of control
same,T/C,"dose: 200.0 mg/kg/injection, schedule: Q01DX009 (ip), vehicle: gum acacia",96 % of control
same,T/C,"dose: 200.0 mg/kg/injection, schedule: Q04DX003 (ip), vehicle: gum acacia",98 % of control
same,T/C,"dose: 400.0 mg/kg/injection, schedule: Q01DX009 (ip), vehicle: gum acacia",90 % of control
same,T/C,"dose: 400.0 mg/kg/injection, schedule: Q04DX003 (ip), vehicle: gum acacia",90 % of control
COc1ccc(C2NC(=O)NC2=O)cc1OC (stereo not given),T/C,"dose: 25.0 mg/kg/injection, schedule: Q01DX009 (ip), vehicle: saline sonified",98 % of control
same,T/C,[16],102 % of control
same,T/C,"dose: 50.0 mg/kg/injection, schedule: Q01DX009 (ip), vehicle: saline sonified",106 % of control
same,T/C,[17],105 % of control
same,T/C,"dose: 100.0 mg/kg/injection, schedule: Q01DX009 (ip), vehicle: saline sonified",101 % of control
same,T/C,[3],95 % of control
same,T/C,[18],105 % of control
same,T/C,[6],103 % of control
same,T/C,[19],105 % of control
same,T/C,[15],97 % of control
COC(=O)C1C2C=CC(C2)C1C(=O)OC (stereo not given),T/C,[20],99 % of control
same,T/C,[21],105 % of control
same,T/C,[22],92 % of control
CC(=O)Oc1ccc2c(c1)C=CC1C2CCC2(C)/C(=N/NC(N)=S)CCC12 (stereo not given),T/C,"dose: 100.0 mg/kg/injection, schedule: Q04DX002 (ip), vehicle: Klucel (hydroxypropylcellulose) (HPC)",100 % of control
same,T/C,"dose: 200.0 mg/kg/injection, schedule: Q04DX002 (ip), vehicle: Klucel (hydroxypropylcellulose) (HPC)",90 % of control
same,T/C,"dose: 400.0 mg/kg/injection, schedule: Q04DX002 (ip), vehicle: Klucel (hydroxypropylcellulose) (HPC)",116 % of control
CN(C)C(=S)Oc1cc(Cl)c(Cl)cc1Cl,T/C,[9],96 % of control
same,T/C,[11],95 % of control
same,T/C,[13],90 % of control
CC(=O)Nc1ccc(SC(Sc2ccc(NC(C)=O)cc2)c2ccccc2)cc1,T/C,[17],92 % of control
same,T/C,[18],92 % of control
same,T/C,[19],92 % of control
Nc1ncnc2scnc12,T/C,[17],102 % of control
same,T/C,[18],99 % of control
same,T/C,[19],100 % of control
CCCCCCCCCCCCCCCNC1=C(C)C(=O)C(NCCCCCCCCCCCCCCC)=C(C)C1=O,T/C,[1],93 % of control
same,T/C,[4],98 % of control
same,T/C,[7],89 % of control
O/N=C/c1ccccc1,T/C,"dose: 66.0 mg/kg/injection, schedule: Q01DX009 (ip), vehicle: saline with Tween-80",87 % of control
same,T/C,"dose: 100.0 mg/kg/injection, schedule: Q01DX009 (ip), vehicle: saline with Tween-80",96 % of control
same,T/C,"dose: 150.0 mg/kg/injection, schedule: Q01DX009 (ip), vehicle: saline with Tween-80",95 % of control
O=C(Nc1ccc(C2=NCCN2)cc1)c1ccc(-c2ccc(C(=O)Nc3ccc(C4=NCCN4)cc3)cc2)cc1,T/C,"dose: 111.0 mg/kg/injection, schedule: Q01DX Z (ip), vehicle: carboxymethylcellulose (CMC)",105 % of control
same,T/C,"dose: 166.0 mg/kg/injection, schedule: Q01DX Z (ip), vehicle: carboxymethylcellulose (CMC)",101 % of control
same,T/C,"dose: 250.0 mg/kg/injection, schedule: Q01DX Z (ip), vehicle: carboxymethylcellulose (CMC)",106 % of control
same,T/C,"dose: 375.0 mg/kg/injection, schedule: Q01DX Z (ip), vehicle: carboxymethylcellulose (CMC)",109 % of control
O=NN(c1ccccc1)c1ccc(N(N=O)c2ccccc2)cc1,T/C,"dose: 50.0 mg/kg/injection, schedule: Q01DX009 (ip), vehicle: Klucel (hydroxypropylcellulose) (HPC)",97 % of control
same,T/C,[8],96 % of control
same,T/C,[9],93 % of control
same,T/C,[10],100 % of control
same,T/C,[11],100 % of control
same,T/C,[12],96 % of control
same,T/C,[13],96 % of control
CCCCCCCCCCCCCCCCOc1ccc(S(=O)(=O)N(Cc2ccccc2)Cc2ccccc2)cc1[N+](=O)[O-],T/C,[20],86 % of control
same,T/C,[21],95 % of control
same,T/C,[22],90 % of control
O=C1CCCC(=O)NNC(=O)NCCCCCCNC(=O)NN1,T/C,[16],102 % of control
same,T/C,[17],87 % of control
same,T/C,[18],87 % of control
same,T/C,[19],96 % of control
O/N=C1/CCCC/C1=C/c1ccccc1,T/C,[20],101 % of control
same,T/C,[21],97 % of control
same,T/C,[22],100 % of control
CCCCCCC[n+]1ccc(C(=O)c2ccccc2)cc1,T/C,"dose: 75.0 mg/kg/injection, schedule: Q01DX001 (ip), vehicle: carboxymethylcellulose (CMC)",96 % of control
same,T/C,"dose: 300.0 mg/kg/injection, schedule: Q01DX001 (ip), vehicle: carboxymethylcellulose (CMC)",105 % of control
CCCCCCCCCCCCNC(C1=C(O)c2ccccc2C(=O)C1=O)c1ccccc1 (stereo not given),T/C,"dose: 100.0 mg/kg/injection, schedule: Q01DX001 (ip), vehicle: saline with Tween-80",95 % of control
same,T/C,"dose: 200.0 mg/kg/injection, schedule: Q01DX001 (ip), vehicle: saline with Tween-80",88 % of control
same,T/C,"dose: 400.0 mg/kg/injection, schedule: Q01DX001 (ip), vehicle: saline with Tween-80",95 % of control
